Data published in PMC5454592, “Pharmacological and Toxicological Properties of the Potent Oral γ-Secretase Modulator BPN-15606” (The Journal of Pharmacology and Experimental Therapeutics, 2017).

Assays:
[1] = system: HReN-mGAP AD ReN cells; assay: Three-dimensional human neural cell culture model of AD (MSD ELISA); assay type: cell-based; details: 70 nM
Procedure: (§1) HReN-mGAP AD ReN cell expression APP^Swedish/London and Presenilin 1^ΔE9 were previously described ([Choi et al., 2014]). The HReN-mGAP AD ReN cells were three-dimensional (3D)–differentiated for 7 weeks, as previously described ([Choi et al., 2014]). The cultures were then harvested and analyzed for the soluble (conditioned media) and insoluble Aβ40/42/38 and p-tau/tau levels, using Meso Scale Discovery electrochemiluminescence system. BPN-15606 (70 nM) and the same volume of DMSO controls were treated in the last 4 weeks. The potential toxicity of the drugs was monitored by CytoTox-ONE (lactate dehydrogenase) assay after 1 week of the treatments. At the end of the treatments, the soluble (media) and the insoluble fractions (5 M GuHCl-soluble extracts) were collected and analyzed for Aβ38, Aβ40, and Aβ42 with MSD enzyme-linked immunosorbent assay (ELISA; V-Plex 6E10 Aβ40/Aβ42/Aβ38 kit). The custom-made plates were used for detecting total tau (BT2; ThermoFisher Scientific, Sommerset, NJ) and pThr181 tau (At270; ThermoFisher Scientific, Sommerset, NJ). The insoluble fraction was dissolved in 5 M GuHCl, and pThr181 tau, total tau, Aβ40, Aβ42, and Aβ38 concentrations were determined by MSD ELISA. The levels of the control protein Tuj1 were determined by dot-blot analysis in the GuHCl lysates (data not shown).

[2] = system: Aβ42 and Aβ40 levels; assay: Repeat-dose (7-day) efficacy study in mice; assay type: in vivo, C57BL/6J mice
Procedure: Male C57BL/6J mice (n = 10/dose level) and male Sprague–Dawley rats (n = 14/dose level) were administered either vehicle (80% polyethylene glycol 400 v/v; 20% sterile water v/v and 0.1% Tween 20 v/v) or BPN-15606 (10, 25, and 50 mg/kg) once daily po for 7 consecutive days (mice) or 5, 25, and 50 mg/kg once daily po for 9 consecutive days (rats). […] Animals were sacrificed 4 hours following the dosing on day 7 of the 7-day oral treatment course (mice) and on day 9 of the 9-day oral treatment course (rats). Plasma and brain extracts were prepared (mice and rats); CSF was aspirated from the cisterna magnum with minimal to no blood contamination (rats only); and tissues were frozen at −70°C. Aβ peptides were quantitated in brain extracts and plasma (mice) or CSF and plasma (rats), as described previously, using Meso Scale multiplex kits and the Meso Scale Sector Imager 6000 ([Kounnas et al., 2010]). Statistical analysis was performed using GraphPad Prism software, and results are expressed as mean ± S.E.M. Analysis of variance was used to detect a significant effect. Drug levels of BPN-15606 were measured in plasma and brain extracts using the bioanalytical methods detailed above.

[3] = system: Aβ42 and Aβ40 levels; assay: Acute single-dose pharmacodynamics in mice; assay type: in vivo, C57BL/6J mice; details: single oral dose 25 mg/kg, C57BL/6 mice
Procedure: Male C57BL/6J mice (n = 5 per group) were administered a single dose of either vehicle (80% polyethylene glycol 400 v/v; 20% sterile water v/v and 0.1% Tween 20 v/v) or BPN-15606 (25 mg/kg) by po and sacrificed at 0.5, 1, 2, 4, 8, 12, and 24 hours following the dosing. Plasma and brain extracts were prepared, and Aβ peptides were quantitated as described previously ([Kounnas et al., 2010]). Statistical analysis was performed as described above for the repeat dosing studies.

[4] = system: HReN-mGAP AD ReN cells; assay: CytoTox-ONE (lactate dehydrogenase) assay in 3D culture; assay type: cell-based; details: 70 nM; 1-week-old treated media
Procedure: as §1

[5] = last 4 weeks of 7-week 3D culture, media

COc1nc(-c2cc(C)c(N[C@@H](C)c3ccc(F)cc3)nn2)ccc1-n1cnc(C)c1 [BPN-15606, (S)-N-(1-(4-fluorophenyl)ethyl)-6-(6-methoxy-5-(4-methyl-1H-imidazol-1-yl)pyridin-2-yl)-4-methylpyridazin-3-amine]
soluble Aβ38 level [1, 5]: increasing
soluble Aβ40 level [1, 5]: dramatically decreased
soluble Aβ42/40 ratio [1, 5]: dramatically decreased
soluble Aβ42 level [1, 5]: dramatically decreased
insoluble Aβ40 level ([1]; 5 M GuHCl-soluble extracts): decreased
insoluble Aβ42 level ([1]; 5 M GuHCl-soluble extracts): decreased
insoluble pThr181 tau level ([1]; 5 M GuHCl-soluble extracts): decreased
insoluble total tau level ([1]; 5 M GuHCl-soluble extracts): decreased
lowering of brain Aβ42 levels ([2]; mice, 10 mg/kg): ~40%
lowering of brain Aβ42 levels ([2]; mice, 25 mg/kg): 70–75%
lowering of plasma Aβ42 ([2]; mice, 25 mg/kg): > 90%
clinical observations ([2]; mice, 10, 25, 50 mg/kg po daily for 7 days): all animals appeared normal throughout the study
duration of effect on brain and plasma Aβ42 and Aβ40 levels [3]: ≥ 24 h
onset of effect on brain and plasma Aβ42 and Aβ40 levels [3]: 30 to 60 min
toxicity (Cytotox cell death lactate dehydrogenase assay) [4]: did not induce any significant toxicity
